US12234211B2, “Cycloolefin substituted heteroaromatic compounds and their use” (HUTCHISON MEDIPHARMA LIMITED, priority 2017, dated 2025)
In brackets after ≈: the same amount, converted by molar mass. Like-named read-outs stand apart in the source and are kept apart here.

Legend:
[1] = Determination of solubility in sodium phosphate buffers; format: physicochemical; conditions: for solubility at 1 h: aqueous buffer, thermodynamic from solid
Method: • Sample standard solution: About 3-5 mg test compound was accurately weighed and added into a 5 mL sample tube, 5 mL DMSO was added. Shaking and sonicating for 1 hour. • pH 2.1 sample solution: About 1 mg test compound was accurately weighed and added into a 1 mL sample tube, 1 mL pH 2.1 sodium phosphate buffer was added. Shaking. Adding test compound to the solution, if the solution is visually clear, till there is obvious insoluble in the solution. Sonicating for 1 hour. • pH 7.4 sample solution: About 1 mg test compound was accurately weighed and added into a 1 mL sample tube, 1 mL pH 7.4 sodium phosphate buffer was added. Shaking. Adding test compound to the solution, if the solution is visually clear, till there is obvious insoluble in the solution. Sonicating for 1 hour. 2. Determination • 1 mL sample standard solution was accurately pipetted into a HPLC tube. The peak area was determined by HPLC. • 0.5 mL pH 2.1 sample solution was filtered by syringe filter and was accurately pipetted into a HPLC tube, and 0.5 mL pH 2.1 sodium phosphate buffer was accurately added. Shaking. The peak area was determined by HPLC. • 0.5 mL pH 7.4 sample solution was filtered by syringe filter and was accurately pipetted into a HPLC tube, and 0.5 mL pH 7.4 sodium phosphate buffer was accurately added. Shaking. The peak area was determined by HPLC. • HPLC condition: • Instrument: Agilent 1200 • Column: Agilent SB-C18 5 u 4.6*150 mm • Mobile phase: • Phase A: Water (containing 0.1% formic acid) • Phase B: MeOH (containing 0.1% formic acid)

[2] = target: T1, IDH2-R140Q (Homo sapiens, UniProt P48735, R140Q); experiment: Fluorescent determination of IDH2-R140Q cell activity (2-HG in U87MGR140Q cells); format: cell-based; conditions: 72 hours incubation, read-out: IC50 (2-HG inhibition)
T1 construct: expressed in transfected cells
T1 sequence (P48735 40-452 R140Q): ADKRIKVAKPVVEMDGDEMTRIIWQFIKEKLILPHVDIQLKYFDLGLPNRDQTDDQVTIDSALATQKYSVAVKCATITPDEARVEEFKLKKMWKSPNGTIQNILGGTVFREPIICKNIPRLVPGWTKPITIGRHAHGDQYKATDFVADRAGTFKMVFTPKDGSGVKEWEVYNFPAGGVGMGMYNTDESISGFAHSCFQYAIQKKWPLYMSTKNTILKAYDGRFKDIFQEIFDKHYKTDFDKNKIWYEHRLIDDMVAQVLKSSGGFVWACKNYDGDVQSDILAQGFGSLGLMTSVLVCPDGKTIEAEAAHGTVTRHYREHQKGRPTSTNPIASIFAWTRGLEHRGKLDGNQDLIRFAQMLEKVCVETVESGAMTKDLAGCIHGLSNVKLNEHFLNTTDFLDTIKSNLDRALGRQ

[3] = target: T2, IDH1-R132H (Homo sapiens, UniProt O75874, R132H); experiment: Fluorescent determination of IDH1-R132H cell activity (2-HG in U87MGR132H cells); format: cell-based; conditions: 2-HG inhibition in U87MGR132H cells transfected with IDH1-R132H mutant plasmid
T2 construct: expressed in transfected cells; host or cells: U87MG cells (U87MGR132H)
T2 sequence (O75874 whole entry R132H): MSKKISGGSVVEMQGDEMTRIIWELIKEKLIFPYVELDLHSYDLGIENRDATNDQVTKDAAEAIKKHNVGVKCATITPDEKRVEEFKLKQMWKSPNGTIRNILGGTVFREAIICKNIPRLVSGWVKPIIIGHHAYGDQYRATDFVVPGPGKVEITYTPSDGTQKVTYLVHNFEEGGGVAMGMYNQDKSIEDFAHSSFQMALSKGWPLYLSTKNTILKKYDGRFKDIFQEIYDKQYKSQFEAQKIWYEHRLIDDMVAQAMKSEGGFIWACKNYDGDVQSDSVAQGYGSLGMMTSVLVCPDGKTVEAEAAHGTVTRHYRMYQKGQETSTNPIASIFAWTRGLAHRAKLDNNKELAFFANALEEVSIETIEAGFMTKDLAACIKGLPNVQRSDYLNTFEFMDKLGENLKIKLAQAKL

[4] = Metabolic stability test in liver microsomes (mouse); format: in vitro ADME; conditions: percentage of remaining compound after incubation for 30 minutes vs 0 minute; 1 μM compound; 0.5 mg/mL liver microsomes; 37° C.
Method: (§1) Male CD1 mouse liver microsomes was supplied by Research Institute for Liver Diseases (Shanghai) Co., Ltd. Male SD rat liver microsomes was supplied by BioreclamationIVT in US.
(§2) Phenacetin, glucose-6-phosphate (G-6-P), glucose-6-phosphate dehydrogenase (G-6-PD), and nicotinamide adenine dinucleotide phosphate (NADP) were supplied by Sigma-Aldrich (Missouri, USA).
(§3) 10 mM stock solution of test compound: Certain amount of test compound was weighed and dissolved in certain volume of dimethylsulfoxide (DMSO) to get the stock solution of test compound at 10 mM.
(§4) Reaction termination solution: Certain amount of phenacetin as internal standard was weighed and dissolved in acetonitrile to get the reaction termination solution at 1000 ng/mL, and stored at room temperature for use.
(§5) The stock solution of test compound was diluted to the designated concentration with organic solution (usually the mixtures of acetonitrile, methanol and water with different portions depending on the compound solution) to make the final concentration to be 1 μM and the contents of organic solvents no more than 1% (For DMSO, the controlled margin was 0.1%) in the final incubation system. 100 mM NADP, 500 mM G-6-P and 100 U/mL G-6-PDH were mixed and diluted with ultrapure water to provide the NADPH regenerating system containing 1 mM NADP, 5 mM G-6-P and 1 U/mL G-6-PD, which was pre-incubated at 37° C. water-bath for 10 min and then cooled on ice until being added into the reaction system. 20 mg/mL liver microsomes was mixed with 200 mM PBS and diluted with ultrapure water to make the concentrations of liver microsomes and PBS to be 0.5 mg/mL and 50 mM in the final incubation system, respectively. After the diluted liver microsomes was mixed with the NADPH regenerating solution, certain volumes of 100 mM EDTA and 300 mM MgCl2 (concentration of EDTA and MgCl2 in the final incubation system is 1 mM and 3 mM, respectively) were added, and the incubation system was put into 37° C. water bath. The incubation was commenced by adding the stock solution of test compound and maintained for 30 min. The incubation was terminated by adding the reaction termination solution. The 0 min sample was prepared by adding the reaction termination solution to the incubation system immediately prior to putting the system into the water bath with the addition of the stock solution of test compound. The terminated incubation mixtures were vortexed and centrifuged at 4400 rpm for 10 min, and the supernatant was collected for LC-MS/MS analysis.
(§6) The concentration of test compound was determined using LC-MS/MS method. Using the peak area ratio of the compound and the internal standard as an index, the percentage of remaining compound after incubation for 30 minutes as compared with the 0 minute sample was calculated, and the metabolic stability of the compound was evaluated.

[5] = Metabolic stability test in liver microsomes (rat); format: in vitro ADME; conditions: percentage of remaining compound after incubation for 30 minutes vs 0 minute; 1 μM compound; 0.5 mg/mL liver microsomes; 37° C.
Method: as §1, §2, §3, §4, §5, §6

[6] = pH 2.1 sodium phosphate buffer, read-out: Solubility pH 2.1
[7] = pH 7.4 sodium phosphate buffer, read-out: Solubility pH 7.4

solubility at 1 h [1, 6] | solubility at 1 h [1, 7] | IC50 [2] | IC50 [3] | Mouse liver microsome stability [4] | Rat liver microsome stability [5] | Solubility pH 2.1 ([1]; pH 2.1 sodium phosphate buffer) | Solubility pH 7.4 ([1]; pH 7.4 sodium phosphate buffer) | SMILES
974 µg/mL | 124 µg/mL | – | – | – | – | – | – | C[C@@H](Nc1nc(NCc2ccccn2)nc(C2=C(F)C(O)C(F)(F)CC2)n1)C(F)(F)F (mixture of isomers) [Compound 271]
> 1000 µg/mL | 716 µg/mL (≈ 1830 µM) | 866 nM | – | – | – | – | – | C[C@@H](Nc1nc(N[C@H]2CCOC2)nc(C2=C(F)C(O)CCC2)n1)C(F)(F)F (mixture of isomers) [Compound 3]
> 1000 µg/mL | 85 µg/mL (≈ 217 µM) | 571 nM | – | – | – | – | – | CC(C)Nc1nc(N[C@H](C)C(F)(F)F)nc(C2=C(F)C(O)CC(C)(C)C2)n1 (mixture of isomers) [Compound 9]
448 µg/mL (≈ 1350 µM) | 19 µg/mL (≈ 57.3 µM) | 1670 nM | – | – | – | – | – | CC(C)Nc1nc(N[C@H](C)C(F)(F)F)nc(C2=CC(O)CC2)n1 (mixture of isomers) [Compound 125]
190 µg/mL (≈ 429 µM) | 60 µg/mL (≈ 135 µM) | 707 nM | 3230 nM | – | – | – | – | C[C@@H](Nc1nc(N[C@H](C)C(F)(F)F)nc(C2=C(F)C(O)C3(CC2)CC3)n1)C(F)(F)F (mixture of isomers) [Compound 219]
– | – | 383 nM | 1100 nM | 96.4% | 94.2% | – | – | OC1C(F)=C(c2nc(NC3CC(F)(F)C3)nc(NC3CC(F)(F)C3)n2)CCC1F (single isomer, unassigned) [Compound 202]
– | – | 48 nM | 81 nM | 81.4% | 88.8% | – | – | C[C@@H](Nc1nc(NC2CC(F)(F)C2)nc(C2=C(F)C(O)C(F)CC2)n1)C(F)(F)F (single isomer, unassigned) [Compound 227]
– | – | 40 nM | 70 nM | 76.3% | 86.6% | – | – | C[C@@H](Nc1nc(N[C@@H]2CCC(F)(F)C2)nc(C2=C(F)C(O)C(F)CC2)n1)C(F)(F)F (single isomer, unassigned) [Compound 232]
– | – | 93 nM | 869 nM | 58.6% | 76.8% | – | – | OC1CCCC(c2nc(NC3CC(F)(F)C3)nc(NC3CC(F)(F)C3)n2)=C1F (centres unmarked) [Compound 5]
– | – | 83 nM | 421 nM | 66.2% | 83.8% | – | – | [2H]C1(O)CCCC(c2nc(NC3CC(F)(F)C3)nc(NC3CC(F)(F)C3)n2)=C1F (centres unmarked) [Compound 19]
570 µg/mL (≈ 1360 µM) | 62 µg/mL (≈ 148 µM) | 232 nM | – | – | – | – | – | OC1CCCCC(c2nc(NC3CC(F)(F)C3)nc(NC3CC(F)(F)C3)n2)=C1F (centres unmarked) [Compound 20]
141 µg/mL (≈ 314 µM) | < 5 µg/mL | 435 nM | – | – | – | – | – | C[C@@H](Nc1nc(Nc2ccc3cccnc3c2)nc(C2=C(F)C(O)CCC2)n1)C(F)(F)F (some centres unmarked) [Compound 68]
64 µg/mL (≈ 145 µM) | 55 µg/mL (≈ 124 µM) | 50 nM | 3050 nM | – | – | – | – | CC(C)(C)ONc1nc(Nc2ccnc(C(F)(F)F)c2)nc(C2=C(F)C(O)CCC2)n1 (centres unmarked) [Compound 71]
– | – | – | – | 93.1% | 92.9% | 0.146 mg/mL | 0.037 mg/mL | [2H]C1([2H])CCC(c2nc(N[C@H](C)C(F)(F)F)nc(N[C@H](C)C(F)(F)F)n2)=C(F)C1O (stereo partly drawn) [Compound 82, (*)3-(4,6-Bis(((R)-1,1,1-trifluoropropan-2-yl)amino)-1,3,5-triazin-2-yl)-2-fluorocyclohex-2-en-6,6-D2-1-ol]
– | – | 48 nM | 268 nM | 78.9% | 67.8% | – | – | [2H]C1([2H])CCC(c2nc(NC3CC(F)(F)C3)nc(N[C@@H](C)C(F)(F)F)n2)=C(F)C1O (some centres unmarked) [Compound 84]
– | – | 35 nM | 207 nM | 64.0% | 78.1% | – | – | [2H]C1([2H])CCC(c2nc(NC3CC(F)(F)C3)nc(NC3CC(F)(F)C3)n2)=C(F)C1O (centres unmarked) [Compound 85]
– | – | 205 nM | 781 nM | 88.5% | 97.9% | – | – | [2H]C1([2H])CCC(c2nc(N[C@@H](C)C(F)(F)F)nc(N[C@@H](C)C(F)(F)F)n2)=C(F)C1O (some centres unmarked) [Compound 87]
– | – | 131 nM | 1140 nM | 65.4% | 82.6% | – | – | CC(C)Nc1nc(N[C@H](C)C(F)(F)F)nc(C2=C(F)C(O)C(F)(F)CC2)n1 (stereo partly drawn) [Compound 94, 2,6,6-Trifluoro-3-(4-(isopropylamino)-6-(((R)-1,1,1-trifluoropropan-2-yl)amino)-1,3,5-triazin-2-yl)cyclohex-2-en-1-ol]
– | – | 64 nM | 203 nM | 28.7% | 49.8% | – | – | OC1C=C(c2nc(NC3CC(F)(F)C3)nc(NC3CC(F)(F)C3)n2)CCC1 (centres unmarked) [Compound 127]
– | – | 98 nM | 733 nM | 91.3% | 92.1% | – | – | OC1C(F)=C(c2nc(NC3CC(F)(F)C3)nc(NC3CC(F)(F)C3)n2)CCC1(F)F (centres unmarked) [Compound 203]
55 µg/mL (≈ 127 µM) | < 5 µg/mL | 1170 nM | > 10000 nM | – | – | – | – | C[C@@H](Nc1nc(C2=C(F)C(O)C(F)(F)CC2)nc(N2CC(F)(F)C2)n1)C(F)(F)F (some centres unmarked) [Compound 243]
– | – | 57 nM | 213 nM | 86.9% | 95.1% | – | – | C[C@@H](Nc1nc(NC2CC(F)(F)C2)nc(C2=C(F)C(O)C(F)(F)CC2)n1)C(F)(F)F (stereo partly drawn) [Compound 259, 3-(4-((3,3-Difluorocyclobutyl)amino)-6-(((R)-1,1,1-trifluoropropan-2-yl)amino)-1,3,5-triazin-2-yl)-2,6,6-trifluorocyclohex-2-en-1-ol]
789 µg/mL (≈ 3020 µM) | 818 µg/mL (≈ 3130 µM) | – | – | – | – | – | – | Nc1nc(N)nc(C2=C(F)C(O)C(F)(F)CC2)n1 (centres unmarked) [Compound 284, 3-(4,6-Diamino-1,3,5-triazin-2-yl)-2,6,6-trifluorocyclohex-2-en-1-ol]
